Source: patent US6872818B2, “Ammonium sulfate for neutralization of inhibitory effects” (QIAGEN GmbH, priority 2001, dated 2005)

Legend:
RT-PCR reaction = conditions: final concentration of 1 mM
Protocol: In order to quantify the generated cDNA after RT reactions, 2 μl of each RT reaction mixture was transferred to a 20 μl PCR mixture.

cDNA synthesis = assay: Reverse transcription / PCR in presence of SYBRGREEN dye; format: biochemical; conditions: final concentration of 100×
Protocol: Reverse transcription reactions containing 0×, 0.001×, 0.01×, 0.1×, 1×, 10× and 100× SYBRGREEN® dye were performed. In order to quantify the generated cDNA after RT-reaction, 2 μl of the RT reaction was transferred to a 20 μl PCR mixture. PCR products were analyzed by gel-electrophoresis.

## NCCCNCCCCNCCCN [spermine]
RT-PCR reaction
  reduction in signals produced from an RT-PCR reaction: up to 4 fold

## CCCN(CCCN(C)C)c1cc(/C=C2/Sc3ccccc3N2C)c2ccccc2[n+]1-c1ccccc1 [SYBRGREEN® dye]
cDNA synthesis
  cDNA synthesis: total loss of cDNA synthesis
